Laboratory results from ChEMBL document CHEMBL1137806, “Cytotoxic oxoisoaporphine alkaloids from Menispermum dauricum” (J Nat Prod, 2001).

Tests used:
Assay type in all cases: functional, cell-based
A549 = experiment: Cytotoxicity against human A549 cells by MTT assay
MCF7 = experiment: Cytotoxicity against human MCF7 cells by MTT assay
HL-60 = experiment: Cytotoxicity against human HL60 cells by MTT assay
P388 = experiment: Cytotoxicity against mouse P388 cells by MTT assay

COc1ccc2c(c1)C(=O)c1c(NCCc3ccc(O)cc3)c(OC)cc3ccnc-2c13 [DAURIOXOISOPORPHINE A]
IC50 (A549): 8.8 µM
IC50 (MCF7): 3 µM
IC50 (HL-60): > 50 µM
IC50 (P388): 30.5 µM

COc1ccc2c(c1)C(=O)c1c(N)c(OC)c(OC)c3ccnc-2c13 [DAURIOXOISOPORPHINE B]
IC50 (A549): > 50 µM
IC50 (MCF7): 6.2 µM
IC50 (HL-60): > 50 µM
IC50 (P388): 9.6 µM

COc1cc([C@@H]2c3cc4c(cc3[C@@H](O[C@@H]3O[C@@H]5CO[C@@H](C)O[C@H]5[C@H](O)[C@H]3O)[C@H]3COC(=O)[C@H]23)OCO4)cc(OC)c1O [ETOPOSIDE]
IC50 (A549): 0.5 µM
IC50 (MCF7): 12.3 µM
IC50 (HL-60): 5.4 µM
IC50 (P388): 0.1 µM
